Data published in patent publication US9975907B2, “Pyrimidinones as PI3K inhibitors” (Incyte Corporation, priority 2009, dated 2018).
Where a name gives a salt, the structure may show the parent alone.

Biological target: PI3Kδ (p110δ/p85α) (Homo sapiens (Human), UniProt O00329)
Test: PI3Kδ Scintillation Proximity Assay (Assay A3)
Assay type: biochemical
Settings: column b, Assay A3 (SPA), 20 μM ATP
Source text: [γ-^33P]ATP (10 mCi/mL) was purchased from Perkin-Elmer (Waltham, Mass.). Lipid kinase substrate, D-myo-Phosphatidylinositol 4,5-bisphosphate (PtdIns(4,5)P2)D (+)-sn-1,2-di-O-octanoylglyceryl, 3-O-phospho linked (PIP2), CAS 204858-53-7, was purchased from Echelon Biosciences (Salt Lake City, Utah). PI3Kδ (p110δ/p85α) was purchased from Millipore (Bedford, Mass.). ATP, MgCl2, DTT, EDTA, MOPS and CHAPS were purchased from Sigma-Aldrich (St. Louis, Mo.). Wheat Germ Agglutinin (WGA) YSi SPA Scintillation Beads was purchased from GE healthcare life sciences (Piscataway, N.J.).
The kinase reaction was conducted in polystyrene 384-well matrix white plate from Thermo Fisher Scientific in a final volume of 25 μL. Inhibitors were first diluted serially in DMSO and added to the plate wells before the addition of other reaction components. The final concentration of DMSO in the assay was 0.5%. The PI3K assays were carried out at room temperature in 20 mM MOPS, pH 6.7, 10 mM MgCl2, 5 mM DTT and CHAPS 0.03%. Reactions were initiated by the addition of ATP, the final reaction mixture consisted of 20 μM PIP2, 20 μM ATP, 0.2 μCi [γ-^33P] ATP, 4 nM PI3Kδ. Reactions were incubated for 210 min and terminated by the addition of 40 μL SPA beads suspended in quench buffer: 150 mM potassium phosphate pH 8.0, 20% glycerol. 25 mM EDTA, 400 μM ATP. The final concentration of SPA beads was 1.0 mg/mL. After the plate sealing, plates were shaken overnight at room temperature and centrifuged at 1800 rpm for 10 minutes, the radioactivity of the product was determined by scintillation counting on Topcount (Perkin-Elmer). IC50 determination was performed by fitting the curve of percent control activity versus the log of the inhibitor concentration using the GraphPad Prism 3.0 software.

PI3Kδ (p110δ/p85α), sequence (O00329 whole entry, species assumed): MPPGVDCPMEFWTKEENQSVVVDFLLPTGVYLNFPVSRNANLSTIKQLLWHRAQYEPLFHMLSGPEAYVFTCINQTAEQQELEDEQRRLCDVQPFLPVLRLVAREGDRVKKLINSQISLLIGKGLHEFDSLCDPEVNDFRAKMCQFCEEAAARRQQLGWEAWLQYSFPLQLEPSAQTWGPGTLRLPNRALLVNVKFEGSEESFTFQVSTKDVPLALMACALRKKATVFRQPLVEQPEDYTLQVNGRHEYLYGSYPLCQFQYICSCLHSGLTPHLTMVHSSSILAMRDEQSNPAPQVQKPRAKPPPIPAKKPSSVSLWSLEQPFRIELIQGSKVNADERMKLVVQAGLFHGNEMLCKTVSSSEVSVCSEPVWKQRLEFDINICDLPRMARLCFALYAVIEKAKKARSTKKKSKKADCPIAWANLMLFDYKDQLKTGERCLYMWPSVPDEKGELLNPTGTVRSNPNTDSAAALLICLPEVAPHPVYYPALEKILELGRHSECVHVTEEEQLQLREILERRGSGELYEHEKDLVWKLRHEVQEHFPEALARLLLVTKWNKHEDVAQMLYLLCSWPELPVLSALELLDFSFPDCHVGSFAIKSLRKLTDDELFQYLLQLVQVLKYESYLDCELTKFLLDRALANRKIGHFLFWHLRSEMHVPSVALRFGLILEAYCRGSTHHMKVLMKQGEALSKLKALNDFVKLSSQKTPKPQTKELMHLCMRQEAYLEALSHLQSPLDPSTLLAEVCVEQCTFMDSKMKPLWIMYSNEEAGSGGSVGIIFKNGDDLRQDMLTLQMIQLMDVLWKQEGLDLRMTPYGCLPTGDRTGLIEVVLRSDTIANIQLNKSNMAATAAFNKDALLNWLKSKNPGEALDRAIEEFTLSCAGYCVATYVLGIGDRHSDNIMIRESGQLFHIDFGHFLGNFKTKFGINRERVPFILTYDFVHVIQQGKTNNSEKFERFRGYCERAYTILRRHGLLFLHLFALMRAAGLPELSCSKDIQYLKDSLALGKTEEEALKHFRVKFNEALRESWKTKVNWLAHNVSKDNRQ
PI3Kδ (p110δ/p85α), sequence (P27986 whole entry partner, species assumed): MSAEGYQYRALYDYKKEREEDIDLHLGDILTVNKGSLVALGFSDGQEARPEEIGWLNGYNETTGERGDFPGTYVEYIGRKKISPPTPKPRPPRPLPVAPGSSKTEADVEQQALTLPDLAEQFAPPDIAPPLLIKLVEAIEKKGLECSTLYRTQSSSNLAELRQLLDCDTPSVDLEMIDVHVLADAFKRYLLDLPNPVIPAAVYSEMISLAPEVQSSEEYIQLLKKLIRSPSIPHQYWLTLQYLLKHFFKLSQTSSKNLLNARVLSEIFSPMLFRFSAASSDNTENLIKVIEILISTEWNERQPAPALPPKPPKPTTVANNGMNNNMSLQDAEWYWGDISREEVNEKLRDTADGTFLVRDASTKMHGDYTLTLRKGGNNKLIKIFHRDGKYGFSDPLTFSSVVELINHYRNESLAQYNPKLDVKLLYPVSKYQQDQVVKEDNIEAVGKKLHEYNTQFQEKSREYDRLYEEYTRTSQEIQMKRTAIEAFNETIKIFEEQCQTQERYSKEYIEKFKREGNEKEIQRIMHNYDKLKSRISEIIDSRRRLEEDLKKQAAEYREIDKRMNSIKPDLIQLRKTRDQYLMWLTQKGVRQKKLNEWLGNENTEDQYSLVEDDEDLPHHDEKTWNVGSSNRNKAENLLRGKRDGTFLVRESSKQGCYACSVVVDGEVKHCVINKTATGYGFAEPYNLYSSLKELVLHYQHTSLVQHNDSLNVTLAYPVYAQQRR

Row | SMILES | IC50
1 | CC(Nc1nc(N)nc2[nH]cnc12)c1nc2sccn2c(=O)c1-c1cc(F)cc(F)c1 (stereo not shown) [Example 24, 7-{1-[(2-amino-9H-purin-6-yl)amino]ethyl}-6-(3,5-difluorophenyl)-5H-[1,3]thiazolo[3,2-a]pyrimidin-5-one] | > 0.5 µM
2 | CC(Nc1nc(N)nc2[nH]cnc12)c1nc2sccn2c(=O)c1-c1cccc(F)c1 (stereo not shown) [Example 26, 7-{1-[(2-amino-9H-purin-6-yl)amino]ethyl}-6-(3-fluorophenyl)-5H-[1,3]thiazolo[3,2-a]pyrimidin-5-one] | 0.1 to 0.5 µM
3 | Cc1csc2nc(C(C)Nc3ncnc4[nH]ccc34)c(-c3cc(F)cc(F)c3)c(=O)n12 (stereo not shown) [Example 17, 6-(3,5-difluorophenyl)-3-methyl-7-[1-(7H-pyrrolo[2,3-d]pyrimidin-4-ylamino)ethyl]-5H-[1,3]thiazolo[3,2-a]pyrimidin-5-one] | 0.1 to 0.5 µM
4 | Cc1ccc(-c2c(C(C)Nc3ncnc4[nH]cnc34)nc3scc(C)n3c2=O)cc1 (stereo not shown) [Example 31, 3-methyl-6-(4-methylphenyl)-7-[1-(9H-purin-6-ylamino)ethyl]-5H-[1,3]thiazolo[3,2-a]pyrimidin-5-one trifluoroacetic acid salt] | 0.1 to 0.5 µM
5 | Cc1cccc2nc(C(C)Nc3ncnc4[nH]cnc34)c(-c3cc(F)ccc3F)c(=O)n12 (stereo not shown) [Example 67, 3-(2,5-Difluorophenyl)-6-methyl-2-[1-(9H-purin-6-ylamino)ethyl]-4H-pyrido[1,2-a]pyrimidin-4-one trifluoroacetic acid salt] | < 0.05 µM
6 | CC(Nc1nc(N)nc2[nH]cnc12)c1nc2sccn2c(=O)c1-c1ccccc1 (stereo not shown) [Example 27, 7-{1-[(2-amino-9H-purin-6-yl)amino]ethyl}-6-phenyl-5H-[1,3]thiazolo[3,2-a]pyrimidin-5-one] | 0.1 to 0.5 µM
7 | Cc1cccc2nc(C(C)Nc3ncnc4[nH]cnc34)c(-c3cc(F)cc(F)c3)c(=O)n12 (stereo not shown) [Example 69, 3-(3,5-Difluorophenyl)-6-methyl-2-[1-(9H-purin-6-ylamino)ethyl]-4H-pyrido[1,2-a]pyrimidin-4-one trifluoroacetic acid salt] | 0.1 to 0.5 µM
8 | Cc1cc(-c2c(C(C)Nc3nc(N)nc4[nH]cnc34)nc3cccc(C)n3c2=O)cnc1Cl (stereo not shown) [Example 82, 2-{1-[(2-Amino-9H-purin-6-yl)amino]ethyl}-3-(6-chloro-5-methylpyridin-3-yl)-6-methyl-4H-pyrido[1,2-a]pyrimidin-4-one trifluoroacetic acid salt] | > 0.5 µM
9 | Cc1csc2nc(C(C)Nc3nc(N)nc4[nH]cnc34)c(-c3cncc(F)c3)c(=O)n12 (stereo not shown) [Example 38, 7-{1-[(2-amino-9H-purin-6-yl)amino]ethyl}-6-(5-fluoropyridin-3-yl)-3-methyl-5H-[1,3]thiazolo[3,2-a]pyrimidin-5-one trifluoroacetic acid salt] | 0.05 to 0.1 µM
10 | Cc1csc2nc(C(C)Nc3ncnc4[nH]cnc34)c(-c3ccncc3)c(=O)n12 (stereo not shown) [Example 19, 3-methyl-7-[1-(9H-purin-6-ylamino)ethyl]-6-pyridin-4-yl-5H-[1,3]thiazolo[3,2-a]pyrimidin-5-one] | 0.1 to 0.5 µM
11 | Cc1csc2nc(C(C)Nc3ncnc4[nH]cnc34)c(-c3cccc(F)c3F)c(=O)n12 (stereo not shown) [Example 41, 6-(2,3-difluorophenyl)-3-methyl-7-[1-(9H-purin-6-ylamino)ethyl]-5H-[1,3]thiazolo[3,2-a]pyrimidin-5-one trifluoroacetic acid salt] | 0.05 to 0.1 µM
12 | Cc1csc2nc(C(C)Nc3nc(N)nc4[nH]cnc34)c(-c3cccc(Cl)c3)c(=O)n12 (stereo not shown) [Example 32, 7-{1-[(2-amino-9H-purin-6-yl)amino]ethyl}-6-(3-chlorophenyl)-3-methyl-5H-[1,3]thiazolo[3,2-a]pyrimidin-5-one trifluoroacetic acid salt] | 0.05 to 0.1 µM
13 | Cc1cccc(-c2c(C(C)Nc3nc(N)nc4[nH]cnc34)nc3cccc(C)n3c2=O)c1 (stereo not shown) [Example 52, 2-{1-[(2-Amino-9H-purin-6-yl)amino]ethyl}-6-methyl-3-(3-methylphenyl)-4H-pyrido[1,2-a]pyrimidin-4-one trifluoroacetic acid salt] | < 0.05 µM
14 | Cc1csc2nc(C(C)Nc3nc(N)nc4[nH]cnc34)c(-c3cc(F)cc(Cl)c3)c(=O)n12 (stereo not shown) [Example 35, 7-{1-[(2-amino-9H-purin-6-yl)amino]ethyl}-6-(3-chloro-5-fluorophenyl)-3-methyl-5H-[1,3]thiazolo[3,2-a]pyrimidin-5-one trifluoroacetic acid salt] | 0.05 to 0.1 µM
15 | CCc1cccc2nc(C(C)Nc3ncnc4[nH]cnc34)c(-c3cc(F)cc(F)c3)c(=O)n12 (stereo not shown) [Example 76, 3-(3,5-Difluorophenyl)-6-ethyl-2-[1-(9H-purin-6-ylamino)ethyl]-4H-pyrido[1,2-a]pyrimidin-4-one trifluoroacetic acid salt] | 0.1 to 0.5 µM
16 | Cc1cccc2nc(C(C)Nc3ncnc4[nH]cnc34)c(-c3ccc(F)c(F)c3)c(=O)n12 (stereo not shown) [Example 68, 3-(3,4-Difluorophenyl)-6-methyl-2-[1-(9H-purin-6-ylamino)ethyl]-4H-pyrido[1,2-a]pyrimidin-4-one trifluoroacetic acid salt] | 0.1 to 0.5 µM
17 | Cc1cccc(-c2c(C(C)Nc3ncnc4[nH]cnc34)nc3cccc(C)n3c2=O)c1 (stereo not shown) [Example 51, 6-Methyl-3-(3-methylphenyl)-2-[1-(9H-purin-6-ylamino)ethyl]-4H-pyrido[1,2-a]pyrimidin-4-one trifluoroacetic acid salt] | 0.1 to 0.5 µM
18 | Cc1csc2nc(C(C)Nc3nc(N)nc4[nH]cnc34)c(-c3cccc(F)c3F)c(=O)n12 (stereo not shown) [Example 34, 7-{1-[(2-amino-9H-purin-6-yl)amino]ethyl}-6-(2,3-difluorophenyl)-3-methyl-5H-[1,3]thiazolo[3,2-a]pyrimidin-5-one trifluoroacetic acid salt] | < 0.05 µM
19 | CC(Nc1ncnc2[nH]cnc12)c1nc2sccn2c(=O)c1-c1cccc(F)c1 (stereo not shown) [Example 28, 6-(3-fluorophenyl)-7-[1-(9H-purin-6-ylamino)ethyl]-5H-[1,3]thiazolo[3,2-a]pyrimidin-5-one] | > 0.5 µM
20 | CCc1cccc2nc(C(C)Nc3nc(N)nc4[nH]cnc34)c(-c3cc(F)cc(F)c3)c(=O)n12 (stereo not shown) [Example 77, 2-{1-[(2-Amino-9#-purin-6-yl)amino]ethyl}-3-(3,5-difluorophenyl)-6-ethyl-4H-pyrido[1,2-a]pyrimidin-4-one trifluoroacetic acid salt] | 0.05 to 0.1 µM
21 | CC(Nc1ncnc2[nH]cnc12)c1nc2sccn2c(=O)c1-c1ccccc1 (stereo not shown) [Example 29, 6-phenyl-7-[1-(9H-purin-6-ylamino)ethyl]-5H-[1,3]thiazolo[3,2-a]pyrimidin-5-one] | > 0.5 µM
22 | Cc1csc2nc(C(C)Nc3nc(F)nc4[nH]cnc34)c(-c3cc(F)cc(F)c3)c(=O)n12 (stereo not shown) [Example 18, 6-(3,5-difluorophenyl)-7-{1-[(2-fluoro-9H-purin-6-yl)amino]ethyl}-3-methyl-5H-[1,3]thiazolo[3,2-a]pyrimidin-5-one] | 0.1 to 0.5 µM
23 | Cc1csc2nc(C(C)Nc3ncnc4[nH]cnc34)c(-c3cscn3)c(=O)n12 (stereo not shown) [Example 21, 3-methyl-7-[1-(9H-purin-6-ylamino)ethyl]-6-(1,3-thiazol-4-yl)-5H-[1,3]thiazolo[3,2-a]pyrimidin-5-one trifluoroacetic acid salt] | < 0.05 µM
24 | Cc1cc(-c2c(C(C)Nc3ncnc4[nH]cnc34)nc3cccc(C)n3c2=O)cnc1Cl (stereo not shown) [Example 81, 3-(6-Chloro-5-methylpyridin-3-yl)-6-methyl-2-[1-(9H-purin-6-ylamino)ethyl]-4H-pyrido[1,2-a]pyrimidin-4-one trifluoroacetic acid salt] | > 0.5 µM
25 | Cc1cccc2nc(C(C)Nc3ncnc4[nH]cnc34)c(-c3ccc(Cl)cc3)c(=O)n12 (stereo not shown) [Example 55, 3-(4-Chlorophenyl)-6-methyl-2-[1-(9H-purin-6-ylamino)ethyl]-4H-pyrido[1,2-a]pyrimidin-4-one trifluoroacetic acid salt] | > 0.5 µM
26 | Cc1cccc2nc(C(C)Nc3nc(N)nc4[nH]cnc34)c(-c3cccc(C#N)c3)c(=O)n12 (stereo not shown) [Example 84, 3-(2-{1-[(2-Amino-9H-purin-6-yl)amino]ethyl}-6-methyl-4-oxo-4H-pyrido[1,2-a]pyrimidin-3-yl)benzonitrile trifluoroacetic acid salt] | 0.05 to 0.1 µM
27 | CC(Nc1ncnc2[nH]cnc12)c1nc2sccn2c(=O)c1-c1cc(F)cc(F)c1 (stereo not shown) [Example 25, 6-(3,5-difluorophenyl)-7-[1-(9H-purin-6-ylamino)ethyl]-5H-[1,3]thiazolo[3,2-a]pyrimidin-5-one] | > 0.5 µM
28 | Cc1csc2nc(C(C)Nc3ncnc4[nH]cnc34)c(-c3ccc(F)cc3)c(=O)n12 (stereo not shown) [Example 22, 6-(4-fluorophenyl)-3-methyl-7-[1-(9H-purin-6-ylamino)ethyl]-5H-[1,3]thiazolo[3,2-a]pyrimidin-5-one trifluoroacetic acid salt] | 0.05 to 0.1 µM
